Legend:
Neutrophil elastase [1] = molecular target: T1, Neutrophil elastase (Homo sapiens, UniProt P08246); test: Inhibition of Human leukocyte elastase
T1 sequence (P08246 whole entry): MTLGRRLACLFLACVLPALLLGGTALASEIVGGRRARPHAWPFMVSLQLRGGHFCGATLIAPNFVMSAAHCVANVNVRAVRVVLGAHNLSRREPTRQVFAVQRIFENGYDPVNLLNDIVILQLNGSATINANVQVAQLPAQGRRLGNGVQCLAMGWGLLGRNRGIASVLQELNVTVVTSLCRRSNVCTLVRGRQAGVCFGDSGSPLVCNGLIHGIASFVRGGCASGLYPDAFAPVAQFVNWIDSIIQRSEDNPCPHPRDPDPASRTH

Neutrophil elastase [2] = molecular target: T1, Neutrophil elastase; test: Compound was tested for its inhibitory effect against Human leukocyte elastase (HLE)

IC50 (Neutrophil elastase [1]): > 20 µM
Ki (Neutrophil elastase [2]): 310 µM
SMILES: CC1=C(C(=O)OCc2ccccc2)N2C(=O)C[C@H]2S1 (racemic)

— ChEMBL document CHEMBL1151071, “Inhibition of human leukocyte elastase. 5. Inhibition by 6-alkyl substituted penem benzyl esters” (Bioorg Med Chem Lett, 1993)
